According to publication PMC5540946, “Stress-Driven Discovery of Novel Cryptic Antibiotics from a Marine Fungus Penicillium sp. BB1122” (Frontiers in Microbiology, 2017):
In brackets after ≈: the same amount, converted by molar mass. Where two headings read alike, the source gives them in different places.

Legend:
Type in all cases: cell-based
[1] = test system: methicillin resistant Staphylococcus aureus (MRSA); experiment: Broth dilution antibacterial assay (MIC, MBC by subculture) against MRSA; conditions: for MIC: 18 h
Description: (§1) The conventional broth dilution assay was used to evaluate the antibacterial activities. Three clinical pathogens namely MRSA, P. aeruginosa [CMCC(B)10104], and K. pneumoniae [CMCC(B)46117] were cultured and left overnight to grow. Each pathogenic culture was then diluted in 0.9% saline to an inoculum density of 5 × 10^5 cfu by comparison with a McFarland standard. Tetracycline was dissolved in Mueller–Hinton broth with a starting concentration of 512 μg/mL and was used as positive control whereas methanol was used as negative control. A total of 125 μL of MHB was distributed into the 96-well plates. A total of 125 μL of the different samples were dispensed into well 1 and serially diluted across the plate. Ultimately, addition of 125 μL of the bacterial inoculum was performed and the plates were incubated at 37°C for 18 h. The bacteriostatic abilities of the compounds were noted as MICs which were done in triplicate. Five milligrams per milliliter of methanolic solution of 3-[4,5-dimethylthiazol-2-yl]-2,5-diphenyltetrazolium bromide (MTT; Lancaster) was used to detect bacterial growth by a change in color from yellow to blue ([Appendino et al., 2008]).
(§2) Ten microliters of broth with no visible growth were taken from the wells and sub-cultured on nutrient agar plates. The negative control consisted of nutrient agar and the inoculum which was then compared with the number of colonies on the agar. The bactericidal abilities of the compounds were noted as MBCs which was equal to the lowest concentration of the samples which killed 99.9% of the original inoculum ([Clinical and Laboratory Standards Institute, 2014]).

[2] = test system: K. pneumoniae [CMCC(B)46117]; experiment: Broth dilution antibacterial assay (MIC, MBC by subculture) against K. pneumoniae; conditions: Klebsiella pneumoniae
Description: as §1, §2

[3] = test system: P. aeruginosa [CMCC(B)10104]; experiment: Broth dilution antibacterial assay (MIC, MBC by subculture) against P. aeruginosa; conditions: Pseudomonas aeruginosa; for MIC: 18 h, broth dilution, 37°C, triplicate; for MBC: lowest concentration killing 99.9% of original inoculum
Description: as §1, §2

[4] = test system: Human liver cell line LO2; experiment: Cytotoxicity assay (MTT); conditions: normal liver cell line LO2, MTT, triplicate
Description: Human liver cell line LO2 was obtained from the Institute of Biochemistry and Cell Biology (Chinese Academy of Sciences). LO2 cells were maintained in RPMI 1640 containing 10% fetal bovine serum (FBS), 100 units/mL penicillin and 100 units/mL streptomycin. All the cells were grown in a humidified cell incubator with an atmosphere of 5% CO2 at 37°C and subcultured with 0.25% trypsin + 0.02% EDTA. MTT, dimethyl sulfoxide (DMSO), ribonuclease (RNase), propidium iodide (PI), Annexin V-FITC/PI kit were obtained from Sigma. RPMI 1640, DMEM, FBS were purchased from Gibco. Hoechst, trypsin, and the pan caspase inhibitor z-VAD-FMK were obtained from Beyotime Institute of Biotechnology. Compounds were dissolved in DMSO and diluted to the proper concentrations before use, with the concentration of DMSO kept below 0.1% in all assays. Cell viability was measured by the MTT method as previously described, with some modifications ([Jiang et al., 2013]). Briefly, cells were seeded in 96-well microtiter plates at a density of 5 × 10^3 cells/well for 24 h. After drug treatment for the indicated times, cells were incubated with MTT (0.5 mg/mL) for 4 h. The formazan precipitate was dissolved in 150 μL DMSO, and the absorbance was detected at 490 nm with a Sunrise microplate reader (Tecan Group Ltd.). DMSO (0.1%) was used as negative control for all assays. Each test was performed in triplicate.

[5] = lowest concentration killing 99.9% of original inoculum
[6] = broth dilution, 37°C, 18 h, triplicate
[7] = lowest concentration killing 99.9% of original inoculum, read-out: MBC

SMILES	MBC ([1]; Staphylococcus aureus) [µg/mL]	MIC ([1]; Staphylococcus aureus) [µg/mL]	MIC [2] [µg/mL]	MBC ([2]; read-out: MBC) [µg/mL]	MIC ([3]; read-out: MIC) [µg/mL]	MBC ([3]; read-out: MBC) [µg/mL]	MBC [1, 5] [µg/mL]	MBC [2, 5] [µg/mL]	MIC [3] [µg/mL]	MBC [3] [µg/mL]	MIC [2, 6] [µg/mL]	MBC [2, 7] [µg/mL]	IC50 [4]	MIC ([1]; broth dilution, 37°C, triplicate)	IC50 ([4]; Homo sapiens, read-out: IC50) [µg/mL]
COc1cc(=O)oc(/C=C/C=C/C=C/[C@@]2(C)O[C@]3(C)[C@@H](O)[C@@](C)(O[C@@H]3C)[C@@H]2O)c1C [Compound 3, epicitreoviridinol]	2 (≈ 4.78 µM)	1 (≈ 2.39 µM)	> 128	> 128	64 (≈ 153 µM)	128 (≈ 306 µM)									
COc1cc(=O)oc(C=CC=CC=CC(C)=CC2(C)OC(C)C(C)(O)C2O)c1C (stereo not shown) [Compound 2, citreoviridin]							128 (≈ 318 µM)	128 (≈ 318 µM)	8 (≈ 19.9 µM)	16 (≈ 39.8 µM)					
COc1cc(=O)oc(C=CC=CC=CC(C)=CC2(C)OC(C)C(C)(O)C2O)c1C (stereo not shown) [Compound 1, Neocitreoviridin]	128 (≈ 318 µM)	64 (≈ 159 µM)			4 (≈ 9.94 µM)	8 (≈ 19.9 µM)					64 (≈ 159 µM)	128 (≈ 318 µM)			
COc1cc(=O)oc(C=CC=CC=CC2(C)OC3(C)C(C)OC(C)(C2O)C3O)c1C (stereo not shown) [Compound 5, 10Z-isocitreoviridinol]	2 (≈ 4.78 µM)	1 (≈ 2.39 µM)			8 (≈ 19.1 µM)	16 (≈ 38.2 µM)					64 (≈ 153 µM)	128 (≈ 306 µM)			
COc1cc(=O)oc(C(O)C=CC=CC=C(C)C2OC3(C)C(C)OC2(C)C3O)c1C (stereo not shown) [Compound 8, Isopenicillstressol]							1 (≈ 2.39 µM)	128 (≈ 306 µM)		8 (≈ 19.1 µM)			above 100 μg/mL		
COc1cc(=O)oc(/C=C/C=C/C=C/[C@@]2(C)O[C@@]3(C)[C@H](O)[C@](C)(O[C@H]3C)[C@@H]2O)c1C [Compound 4, epiisocitreoviridinol]	128 (≈ 306 µM)	64 (≈ 153 µM)	> 128	> 128	64 (≈ 153 µM)	128 (≈ 306 µM)									
CN(C)[C@@H]1C(O)=C(C(N)=O)C(=O)[C@@]2(O)C(O)=C3C(=O)c4c(O)cccc4[C@@](C)(O)[C@H]3C[C@@H]12 [Tetracycline, reference compound]	4 (≈ 9 µM)	2 (≈ 4.5 µM)			8 (≈ 18 µM)	16 (≈ 36 µM)					64 (≈ 144 µM)	128 (≈ 288 µM)		around 2 µg/mL	
COc1cc(=O)oc(C(O)C=CC=CC=C(C)C2OC3(C)C(C)OC2(C)C3O)c1C (stereo not shown) [Compound 7, Penicillstressol]	1 (≈ 2.39 µM)	0.5 (≈ 1.19 µM)			4 (≈ 9.56 µM)	8 (≈ 19.1 µM)					64 (≈ 153 µM)	128 (≈ 306 µM)			> 100
COc1cc(=O)oc(/C=C/C=C/C=C/[C@@]2(C)O[C@]3(C)[C@@H](O)[C@@](C)(O[C@@H]3C)[C@H]2O)c1C [Compound 6, citreoviridinol]	8 (≈ 19.1 µM)	4 (≈ 9.56 µM)	> 128	> 128	64 (≈ 153 µM)	128 (≈ 306 µM)									
